Assay results reported in the supplement of paper PMC10307832.

Experiments:
Experiment in all cases: relative viability (nuclei count vs DMSO), 5 days (fraction); higher = more cells survive
[1] = tested on: HCC-44
Procedure, shortened: (§1)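 Five library-drug doses in √10 steps were combined with a fixed anchor-drug dose, or a single drug was given alone, by pin tool to lung cancer cell lines in 1536-well plates the day after seeding. Nuclei were stained and counted after 5 days. Relative viability is the nuclei count in treated wells over that in vehicle wells, taken as the median of duplicate plates.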

[2] = tested on: NCI-H2347
Procedure, shortened: as §1

[3] = tested on: NCI-H2126
Procedure, shortened: as §1

[4] = tested on: HARA
Procedure, shortened: as §1

[5] = tested on: UMC-11
Procedure, shortened: as §1

[6] = tested on: HCC-15
Procedure, shortened: as §1

[7] = tested on: NCI-H650
Procedure, shortened: as §1

[8] = tested on: NCI-H2023
Procedure, shortened: as §1

[9] = tested on: PC-14
Procedure, shortened: as §1

[10] = tested on: EPLC-272H
Procedure, shortened: as §1

[11] = tested on: NCI-H838
Procedure, shortened: as §1

[12] = tested on: NCI-H1915
Procedure, shortened: as §1

[13] = tested on: NCI-H1651
Procedure, shortened: as §1

[14] = tested on: SW 1573
Procedure, shortened: as §1

[15] = tested on: LC-2-ad
Procedure, shortened: as §1

[16] = tested on: NCI-H2085
Procedure, shortened: as §1

[17] = tested on: HOP-62
Procedure, shortened: as §1

[18] = tested on: NCI-H1993
Procedure, shortened: as §1

[19] = tested on: NCI-H1355
Procedure, shortened: as §1

[20] = tested on: COR-L23
Procedure, shortened: as §1

[21] = tested on: ABC-1
Procedure, shortened: as §1

[22] = tested on: LU99A
Procedure, shortened: as §1

[23] = tested on: NCI-H358
Procedure, shortened: as §1

`O=c1cc(N2CCOCC2)oc2c(-c3cccc4c3sc3ccccc34)cccc12` + Cc1nc(NC(=O)N2CCC[C@H]2C(N)=O)sc1-c1ccnc(C(C)(C)C(F)(F)F)c1 [Alpelisib] (partner 2 µM) gave a relative viability ([1]; first compound 0.01 µM) of 0.841, a relative viability ([1]; first compound 0.03162 µM) of 0.841 and a relative viability ([1]; first compound 0.1 µM) of 0.826. It also gave a relative viability ([1]; first compound 0.3162 µM) of 0.708, a relative viability ([1]; first compound 1 µM) of 0.697 and a relative viability ([2]; first compound 0.01 µM) of 1.17. For the same compound, the relative viability ([2]; first compound 0.03162 µM) was 1.04, the relative viability ([2]; first compound 0.1 µM) was 1.04 and the relative viability ([2]; first compound 0.3162 µM) was 1. It also gave a relative viability ([2]; first compound 1 µM) of 1.02, a relative viability ([3]; first compound 0.01 µM) of 0.721 and a relative viability ([3]; first compound 0.03162 µM) of 0.736. For the same compound, the relative viability ([3]; first compound 0.1 µM) was 0.762, the relative viability ([3]; first compound 0.3162 µM) was 0.733 and the relative viability ([3]; first compound 1 µM) was 0.729. For the same compound, the relative viability ([4]; first compound 0.01 µM) was 0.854, the relative viability ([4]; first compound 0.03162 µM) was 0.789 and the relative viability ([4]; first compound 0.1 µM) was 0.88. It also gave a relative viability ([4]; first compound 0.3162 µM) of 0.809, a relative viability ([4]; first compound 1 µM) of 0.845 and a relative viability ([5]; first compound 0.01 µM) of 0.995. For the same compound, the relative viability ([5]; first compound 0.03162 µM) was 1.01, the relative viability ([5]; first compound 0.1 µM) was 0.986 and the relative viability ([5]; first compound 0.3162 µM) was 0.979. The relative viability ([5]; first compound 1 µM) was 0.872, the relative viability ([6]; first compound 0.01 µM) was 0.87 and the relative viability ([6]; first compound 0.03162 µM) was 0.92. It also gave a relative viability ([6]; first compound 0.1 µM) of 0.971, a relative viability ([6]; first compound 0.3162 µM) of 0.859 and a relative viability ([6]; first compound 1 µM) of 0.828. For the same compound, the relative viability ([7]; first compound 0.01 µM) was 1.06, the relative viability ([7]; first compound 0.03162 µM) was 1.15 and the relative viability ([7]; first compound 0.3162 µM) was 1.21. The relative viability ([7]; first compound 1 µM) was 1.09, the relative viability ([8]; first compound 0.01 µM) was 0.653 and the relative viability ([8]; first compound 0.03162 µM) was 0.621. For the same compound, the relative viability ([8]; first compound 0.1 µM) was 0.618, the relative viability ([8]; first compound 0.3162 µM) was 0.532 and the relative viability ([8]; first compound 1 µM) was 0.487. The relative viability ([9]; first compound 0.01 µM) was 0.987, the relative viability ([9]; first compound 0.03162 µM) was 0.891 and the relative viability ([9]; first compound 0.1 µM) was 0.931. The relative viability ([9]; first compound 0.3162 µM) was 1.04, the relative viability ([9]; first compound 1 µM) was 0.978 and the relative viability ([10]; first compound 0.01 µM) was 0.955. The relative viability ([10]; first compound 0.03162 µM) was 0.957, the relative viability ([10]; first compound 0.3162 µM) was 1.03 and the relative viability ([10]; first compound 1 µM) was 0.891. For the same compound, the relative viability ([11]; first compound 0.01 µM) was 0.961, the relative viability ([11]; first compound 0.03162 µM) was 0.99 and the relative viability ([11]; first compound 0.1 µM) was 1.03. It also gave a relative viability ([11]; first compound 0.3162 µM) of 1.02, a relative viability ([11]; first compound 1 µM) of 0.975 and a relative viability ([12]; first compound 0.01 µM) of 1.08. For the same compound, the relative viability ([12]; first compound 0.03162 µM) was 1.04, the relative viability ([12]; first compound 0.1 µM) was 1.07 and the relative viability ([12]; first compound 0.3162 µM) was 1.04. It also gave a relative viability ([12]; first compound 1 µM) of 1.06, a relative viability ([13]; first compound 0.01 µM) of 0.924 and a relative viability ([13]; first compound 0.03162 µM) of 0.952. It also gave a relative viability ([13]; first compound 0.1 µM) of 1.04, a relative viability ([13]; first compound 0.3162 µM) of 0.968 and a relative viability ([13]; first compound 1 µM) of 1.01. For the same compound, the relative viability ([14]; first compound 0.01 µM) was 1.13, the relative viability ([14]; first compound 0.03162 µM) was 0.736 and the relative viability ([14]; first compound 0.1 µM) was 0.868. It also gave a relative viability ([14]; first compound 0.3162 µM) of 0.735, a relative viability ([14]; first compound 1 µM) of 0.733 and a relative viability ([15]; first compound 0.01 µM) of 0.91. For the same compound, the relative viability ([15]; first compound 0.1 µM) was 0.976, the relative viability ([15]; first compound 0.3162 µM) was 0.839 and the relative viability ([15]; first compound 1 µM) was 0.906. For the same compound, the relative viability ([16]; first compound 0.01 µM) was 0.941, the relative viability ([16]; first compound 0.03162 µM) was 0.902 and the relative viability ([16]; first compound 0.1 µM) was 1.02. The relative viability ([16]; first compound 0.3162 µM) was 0.919, the relative viability ([16]; first compound 1 µM) was 0.983 and the relative viability ([17]; first compound 0.01 µM) was 1.08. It also gave a relative viability ([17]; first compound 0.03162 µM) of 0.958, a relative viability ([17]; first compound 0.1 µM) of 1.24 and a relative viability ([17]; first compound 0.3162 µM) of 1.19. The relative viability ([17]; first compound 1 µM) was 1.1, the relative viability ([18]; first compound 0.01 µM) was 0.658 and the relative viability ([18]; first compound 0.03162 µM) was 0.741. The relative viability ([18]; first compound 0.1 µM) was 0.797, the relative viability ([18]; first compound 0.3162 µM) was 0.791 and the relative viability ([18]; first compound 1 µM) was 0.722. It also gave a relative viability ([19]; first compound 0.01 µM) of 0.871, a relative viability ([19]; first compound 0.03162 µM) of 0.855 and a relative viability ([19]; first compound 0.3162 µM) of 0.903. It also gave a relative viability ([19]; first compound 1 µM) of 0.82, a relative viability ([20]; first compound 0.01 µM) of 0.871 and a relative viability ([20]; first compound 0.03162 µM) of 0.718. For the same compound, the relative viability ([20]; first compound 0.1 µM) was 0.922, the relative viability ([20]; first compound 0.3162 µM) was 0.795 and the relative viability ([20]; first compound 1 µM) was 0.753. It also gave a relative viability ([21]; first compound 0.01 µM) of 1.11, a relative viability ([21]; first compound 0.03162 µM) of 0.939 and a relative viability ([21]; first compound 0.1 µM) of 1.01. For the same compound, the relative viability ([21]; first compound 0.3162 µM) was 0.883, the relative viability ([21]; first compound 1 µM) was 0.857 and the relative viability ([22]; first compound 0.01 µM) was 0.595. It also gave a relative viability ([22]; first compound 0.03162 µM) of 0.532, a relative viability ([22]; first compound 0.1 µM) of 0.521 and a relative viability ([22]; first compound 0.3162 µM) of 0.598. It also gave a relative viability ([22]; first compound 1 µM) of 0.571, a relative viability ([23]; first compound 0.01 µM) of 0.811 and a relative viability ([23]; first compound 0.03162 µM) of 0.807. For the same compound, the relative viability ([23]; first compound 0.1 µM) was 0.841, the relative viability ([23]; first compound 0.3162 µM) was 0.847 and the relative viability ([23]; first compound 1 µM) was 0.83.
